From publication PMC11087268, “A folate inhibitor exploits metabolic differences in Pseudomonas aeruginosa for narrow-spectrum targeting” (Nature Microbiology, 2024)
Converted amounts (≈) assume the structure as drawn.

What was measured:
[1] = tested on: Escherichia coli ATCC BAA-198; test: MIC (WuXi, Mueller–Hinton broth) against E. coli ATCC BAA-198; assay type: cell-based; details: ATCCBAA198
Method: (§1) Bacterial colonies (4–8) of strains of interest were vortexed in saline and adjusted to an OD600 of 0.2. Strains were diluted 1:200 into CAMHB media in 96-well plates. Antibiotics were serially diluted 1:3 in DMSO, and 1 μl of each dilution was added to bacteria. The plates were incubated for 18–20 h at 37 °C before observation.

[2] = tested on: Enterococcus faecalis ATCC 51575; test: MIC (WuXi, Mueller–Hinton broth) against E. faecalis; assay type: cell-based; details: ATCC51575
Method: as §1

[3] = tested on: E. faecalis; test: Growth with or without TMI supplementation and fluorofolin, E. faecalis; assay type: cell-based, Enterococcus faecalis; details: fluorofolin 2X MIC
Method: Where listed, growth media were prepared according manufacturer recommendations: LB broth and LB broth supplemented with 0.3 mM thymine (BD Biosciences 244610, Alfa Aesar A15879), 0.3 mM methionine (Sigma-Aldrich M9625), 0.3 mM inosine (EMD Millipore 4060), cation-adjusted Mueller–Hinton II broth (CAMHB) (BD 212322) or 0.3 mM thymidine (Sigma-Aldrich T1895), Gutnick minimal media (1.0 g l^−1 K2SO4, 13.5 g l^−1 K2HPO4, 4.7 g l^−1 KH2PO4, 0.1 g l^−1 MgSO4·7H2O, 10 mM NH4Cl as a nitrogen source and 0.4% w/v glucose as a carbon source)[65].
Extended Data Fig. 3 TMI supplementation can also rescue other species from fluorofolin DHFR inhibition. […] (f) P. aeruginosa PA14 or E. coli lptd4213 treated with fluorofolin 50 μg/mL in the presence or absence of 0.3 mM thymidine. (g) E. coli lptd4213 treated with fluorofolin 50 μg/mL and SMX (78.1 μg/mL) in the presence or absence of 0.3 mM thymidine or 0.3 mM TMI supplementation, Curves represent average optical at 600 nm (OD600) of 2 biological replicates. Means are shown. Source data

[4] = tested on: P. aeruginosa PA14; test: Growth of P. aeruginosa PA14 in TMI-supplemented media with fluorofolin; assay type: cell-based, Pseudomonas aeruginosa
[5] = tested on: Pseudomonas aeruginosa PA01; test: MIC against P. aeruginosa PA01 in LB broth; assay type: cell-based; details: 16 h, 37 °C, OD600
Method: Overnight cultures were diluted 1:150 in LB broth and added to a 96-well plate. Antibiotics were serially diluted 1:2 and added to columns of the 96-well plate and grown at 37 °C with continuous shaking. Cell growth was measured using optical density at 600 nm (OD600). MIC assays were performed in either BioTek Synergy HT or Tecan InfiniteM200 Pro microplate readers.

Nc1nc(N)c2c(ccc3c2ccn3Cc2ccnc(F)c2)n1 [fluorofolin]
MIC [1]: 7.11 µg/mL (≈ 23.1 µM) | MIC [2]: 0.01 µg/mL (≈ 0.0324 µM) | rescue of growth inhibition by TMI supplementation [3]: could also be rescued from fluorofolin growth inhibition by TMI supplementation | OD600 of P. Aeruginosa PA14 ([4]; Fluorofolin + TMI, Time 0 min): 0.00375 | OD600 of P. Aeruginosa PA14 ([4]; Fluorofolin + TMI, Time 64.0617 min): 0.00775 | OD600 of P. Aeruginosa PA14 ([4]; Fluorofolin + TMI, Time 74.7383 min): 0.00825 | OD600 of P. Aeruginosa PA14 ([4]; Fluorofolin + TMI, Time 85.415 min): 0.0086 | OD600 of P. Aeruginosa PA14 ([4]; Fluorofolin + TMI, Time 96.0917 min): 0.0088 | OD600 of P. Aeruginosa PA14 ([4]; Fluorofolin + TMI, Time 106.768 min): 0.00895 | OD600 of P. Aeruginosa PA14 ([4]; Fluorofolin + TMI, Time 117.445 min): 0.00965 | OD600 of P. Aeruginosa PA14 ([4]; Fluorofolin + TMI, Time 128.123 min): 0.00995 | OD600 of P. Aeruginosa PA14 ([4]; Fluorofolin + TMI, Time 138.8 min): 0.0106 | OD600 of P. Aeruginosa PA14 ([4]; Fluorofolin + TMI, Time 149.477 min): 0.01185 | OD600 of P. Aeruginosa PA14 ([4]; Fluorofolin + TMI, Time 160.153 min): 0.0109 | OD600 of P. Aeruginosa PA14 ([4]; Fluorofolin + TMI, Time 170.83 min): 0.01125 | OD600 of P. Aeruginosa PA14 ([4]; Fluorofolin + TMI, Time 181.507 min): 0.01245 | OD600 of P. Aeruginosa PA14 ([4]; Fluorofolin + TMI, Time 192.183 min): 0.01295 | OD600 of P. Aeruginosa PA14 ([4]; Fluorofolin + TMI, Time 202.86 min): 0.0136 | OD600 of P. Aeruginosa PA14 ([4]; Fluorofolin + TMI, Time 213.537 min): 0.01355 | OD600 of P. Aeruginosa PA14 ([4]; Fluorofolin + TMI, Time 224.213 min): 0.01385 | OD600 of P. Aeruginosa PA14 ([4]; Fluorofolin + TMI, Time 234.89 min): 0.0143 | OD600 of P. Aeruginosa PA14 ([4]; Fluorofolin + TMI, Time 245.567 min): 0.0154 | OD600 of P. Aeruginosa PA14 ([4]; Fluorofolin + TMI, Time 256.243 min): 0.01575 | OD600 of P. Aeruginosa PA14 ([4]; Fluorofolin + TMI, Time 266.922 min): 0.0155 | OD600 of P. Aeruginosa PA14 ([4]; Fluorofolin + TMI, Time 277.598 min): 0.0159 | OD600 of P. Aeruginosa PA14 ([4]; Fluorofolin + TMI, Time 288.275 min): 0.01755 | OD600 of P. Aeruginosa PA14 ([4]; Fluorofolin + TMI, Time 298.952 min): 0.01775 | OD600 of P. Aeruginosa PA14 ([4]; Fluorofolin + TMI, Time 309.628 min): 0.01825 | OD600 of P. Aeruginosa PA14 ([4]; Fluorofolin + TMI, Time 320.305 min): 0.0182 | OD600 of P. Aeruginosa PA14 ([4]; Fluorofolin + TMI, Time 330.982 min): 0.0183 | OD600 of P. Aeruginosa PA14 ([4]; Fluorofolin + TMI, Time 341.658 min): 0.0174 | OD600 of P. Aeruginosa PA14 ([4]; Fluorofolin + TMI, Time 352.335 min): 0.01685 | OD600 of P. Aeruginosa PA14 ([4]; Fluorofolin + TMI, Time 363.012 min): 0.01765 | OD600 of P. Aeruginosa PA14 ([4]; Fluorofolin + TMI, Time 373.688 min): 0.01775 | OD600 of P. Aeruginosa PA14 ([4]; Fluorofolin + TMI, Time 384.365 min): 0.01795 | OD600 of P. Aeruginosa PA14 ([4]; Fluorofolin + TMI, Time 395.042 min): 0.01805 | OD600 of P. Aeruginosa PA14 ([4]; Fluorofolin + TMI, Time 405.718 min): 0.01805 | OD600 of P. Aeruginosa PA14 ([4]; Fluorofolin + TMI, Time 416.395 min): 0.01825 | OD600 of P. Aeruginosa PA14 ([4]; Fluorofolin + TMI, Time 427.072 min): 0.01805 | OD600 of P. Aeruginosa PA14 ([4]; Fluorofolin + TMI, Time 437.748 min): 0.01825 | OD600 of P. Aeruginosa PA14 ([4]; Fluorofolin + TMI, Time 448.425 min): 0.018 | OD600 of P. Aeruginosa PA14 ([4]; Fluorofolin + TMI, Time 459.102 min): 0.0175 | OD600 of P. Aeruginosa PA14 ([4]; Fluorofolin + TMI, Time 469.78 min): 0.01855 | OD600 of P. Aeruginosa PA14 ([4]; Fluorofolin + TMI, Time 480.457 min): 0.0181 | OD600 of P. Aeruginosa PA14 ([4]; Fluorofolin + TMI, Time 491.133 min): 0.01785 | OD600 of P. Aeruginosa PA14 ([4]; Fluorofolin + TMI, Time 501.81 min): 0.01825 | OD600 of P. Aeruginosa PA14 ([4]; Fluorofolin + TMI, Time 512.487 min): 0.0184 | OD600 of P. Aeruginosa PA14 ([4]; Fluorofolin + TMI, Time 523.163 min): 0.01965 | OD600 of P. Aeruginosa PA14 ([4]; Fluorofolin + TMI, Time 533.84 min): 0.0189 | OD600 of P. Aeruginosa PA14 ([4]; Fluorofolin + TMI, Time 544.517 min): 0.0184 | OD600 of P. Aeruginosa PA14 ([4]; Fluorofolin + TMI, Time 555.193 min): 0.01805 | OD600 of P. Aeruginosa PA14 ([4]; Fluorofolin + TMI, Time 565.87 min): 0.0187 | OD600 of P. Aeruginosa PA14 ([4]; Fluorofolin + TMI, Time 576.547 min): 0.01815 | OD600 of P. Aeruginosa PA14 ([4]; Fluorofolin, Time 0 min): -0.00105 | OD600 of P. Aeruginosa PA14 ([4]; Fluorofolin, Time 64.0617 min): 0.00425 | OD600 of P. Aeruginosa PA14 ([4]; Fluorofolin, Time 74.7383 min): 0.0047 | OD600 of P. Aeruginosa PA14 ([4]; Fluorofolin, Time 85.415 min): 0.00495 | OD600 of P. Aeruginosa PA14 ([4]; Fluorofolin, Time 96.0917 min): 0.00565 | OD600 of P. Aeruginosa PA14 ([4]; Fluorofolin, Time 106.768 min): 0.006 | OD600 of P. Aeruginosa PA14 ([4]; Fluorofolin, Time 117.445 min): 0.0073 | OD600 of P. Aeruginosa PA14 ([4]; Fluorofolin, Time 128.123 min): 0.0085 | OD600 of P. Aeruginosa PA14 ([4]; Fluorofolin, Time 138.8 min): 0.00865 | OD600 of P. Aeruginosa PA14 ([4]; Fluorofolin, Time 149.477 min): 0.0096 | OD600 of P. Aeruginosa PA14 ([4]; Fluorofolin, Time 160.153 min): 0.01045 | OD600 of P. Aeruginosa PA14 ([4]; Fluorofolin, Time 170.83 min): 0.01095 | OD600 of P. Aeruginosa PA14 ([4]; Fluorofolin, Time 181.507 min): 0.01175 | OD600 of P. Aeruginosa PA14 ([4]; Fluorofolin, Time 192.183 min): 0.0127 | OD600 of P. Aeruginosa PA14 ([4]; Fluorofolin, Time 202.86 min): 0.0136 | OD600 of P. Aeruginosa PA14 ([4]; Fluorofolin, Time 213.537 min): 0.01395 | OD600 of P. Aeruginosa PA14 ([4]; Fluorofolin, Time 224.213 min): 0.01515 | OD600 of P. Aeruginosa PA14 ([4]; Fluorofolin, Time 234.89 min): 0.01575 | OD600 of P. Aeruginosa PA14 ([4]; Fluorofolin, Time 245.567 min): 0.0166 | OD600 of P. Aeruginosa PA14 ([4]; Fluorofolin, Time 256.243 min): 0.0165 | OD600 of P. Aeruginosa PA14 ([4]; Fluorofolin, Time 266.922 min): 0.01705 | OD600 of P. Aeruginosa PA14 ([4]; Fluorofolin, Time 277.598 min): 0.01815 | OD600 of P. Aeruginosa PA14 ([4]; Fluorofolin, Time 288.275 min): 0.01805 | OD600 of P. Aeruginosa PA14 ([4]; Fluorofolin, Time 298.952 min): 0.0199 | OD600 of P. Aeruginosa PA14 ([4]; Fluorofolin, Time 309.628 min): 0.0191 | OD600 of P. Aeruginosa PA14 ([4]; Fluorofolin, Time 320.305 min): 0.0205 | OD600 of P. Aeruginosa PA14 ([4]; Fluorofolin, Time 330.982 min): 0.01975 | OD600 of P. Aeruginosa PA14 ([4]; Fluorofolin, Time 341.658 min): 0.0208 | OD600 of P. Aeruginosa PA14 ([4]; Fluorofolin, Time 352.335 min): 0.0206 | OD600 of P. Aeruginosa PA14 ([4]; Fluorofolin, Time 363.012 min): 0.02055 | OD600 of P. Aeruginosa PA14 ([4]; Fluorofolin, Time 373.688 min): 0.0208 | OD600 of P. Aeruginosa PA14 ([4]; Fluorofolin, Time 384.365 min): 0.02105 | OD600 of P. Aeruginosa PA14 ([4]; Fluorofolin, Time 395.042 min): 0.02085 | OD600 of P. Aeruginosa PA14 ([4]; Fluorofolin, Time 405.718 min): 0.02185 | OD600 of P. Aeruginosa PA14 ([4]; Fluorofolin, Time 416.395 min): 0.02155 | OD600 of P. Aeruginosa PA14 ([4]; Fluorofolin, Time 427.072 min): 0.02275 | OD600 of P. Aeruginosa PA14 ([4]; Fluorofolin, Time 437.748 min): 0.02165 | OD600 of P. Aeruginosa PA14 ([4]; Fluorofolin, Time 448.425 min): 0.0225 | OD600 of P. Aeruginosa PA14 ([4]; Fluorofolin, Time 459.102 min): 0.0221 | OD600 of P. Aeruginosa PA14 ([4]; Fluorofolin, Time 469.78 min): 0.0226 | OD600 of P. Aeruginosa PA14 ([4]; Fluorofolin, Time 480.457 min): 0.02355 | OD600 of P. Aeruginosa PA14 ([4]; Fluorofolin, Time 491.133 min): 0.02265 | OD600 of P. Aeruginosa PA14 ([4]; Fluorofolin, Time 501.81 min): 0.02275 | OD600 of P. Aeruginosa PA14 ([4]; Fluorofolin, Time 512.487 min): 0.023 | OD600 of P. Aeruginosa PA14 ([4]; Fluorofolin, Time 523.163 min): 0.02375 | OD600 of P. Aeruginosa PA14 ([4]; Fluorofolin, Time 533.84 min): 0.02255 | OD600 of P. Aeruginosa PA14 ([4]; Fluorofolin, Time 544.517 min): 0.02295 | OD600 of P. Aeruginosa PA14 ([4]; Fluorofolin, Time 555.193 min): 0.0233 | OD600 of P. Aeruginosa PA14 ([4]; Fluorofolin, Time 565.87 min): 0.02345 | OD600 of P. Aeruginosa PA14 ([4]; Fluorofolin, Time 576.547 min): 0.0235 | rescue of growth inhibition by TMI supplementation ([4]; P. aeruginosa PA14, 0.3 mM TMI, fluorofolin 2× MIC): unable to rescue | MIC [5]: 6.25 µg/mL
